Reference: article PMC6332095, “Purification and Partial Characterization of β-Glucosidase in Chayote (Sechium edule)” (Molecules, 2015)

Key:
[1] = test system: T1, β-glucosidase in Sechium edule (Sebg; chayotase); assay: p-nitrophenol release, […] nm; Michaelis-Menten nonlinear fit; format: biochemical; settings: standard assay: sodium citrate 0.2 M, pH 5.0, 25 °C
T1 construct: native purification from fruit pulp (epicarp and mesocarp); homodimer 116 kDa, 58 kDa subunits; tryptic peptides MGFDAYR, FSIAWSR, WFENFLK, DFSEVCFK, EAMQAGVRVK, FGLTYIDYK, NNLK

[2] = biological target: β-glucosidase from chayote (Sechium edule) (Sechium edule); assay: native gel or EMSA; native PAGE on 5%, 7.5%, 10% and 12.5% polyacrylamide gels, pH 8.3, Hedrick and Smith method; native mass 116 kDa compared with the 58 kDa subunit on SDS-PAGE

| Compound | Km [1] | stoichiometry N [2] |
| --- | --- | --- |
| O=[N+]([O-])c1ccc(O[C@@H]2O[C@H](CO)[C@@H](O)[C@H](O)[C@H]2O)cc1 [p-nitrophenyl-β-D-glucopyranoside] | 4.88 mM |  |
| β-glucosidase from chayote (Sechium edule) (enzyme) |  | 2 |
